The results in this text go back to patent publication US20040058876A1, “Secondary binding site of dipeptidyl peptidase IV (DP IV)” (priority 2002, published 2004).

The subject of series [1] is DP IV. In words: Determination of the half-life (t1/2) of DP IV-catalyzed peptide truncation by MALDI-TOF MS. The settings on record: truncation by DP IV. The method, then:
(§1) The degradation fate of peptides was measured by monitoring the signal intensity of the pseudomolecular ion peaks of parent peptides and N-terminal shorted peptides versus time when incubated with 40 mU procine DP IV, recombinant human DP IV or serum DP IV activity. […] As control served the preincubation of DP IV with 0.01M Tris-buffer (Sigma-Aldrich, Deisenhofen, Germany). The mass spectrometer employed was a Hewlett-Packard G2025 model with a linear time of flight analyzer; samples (4 μL) were mixed 1:1 v/v with matrix (44 mg diammonium-hydrogen-citrate and 30 mg 2′,6′-dihydroxyacetophenone in 1 ml aqueous solution containing 50% acetonitrile and 0.05% trifluoroacetic acid; Sigma-Aldrich), transferred to a probe tip and immediately evaporated using the Hewlett-Packard G2024A (Hewlett-Packard, Waldbronn, Germany) sample preparation vacuum chamber. 250 single laser-shot spectra were accumulated. This method of monitoring biodegradation has been validated and allows the general comparison of half-degradation times (t1/2) under various conditions.
(§2) The t1/2-calculation followed this procedure:
(§3) The height of the substrate peak was measured and set as 100% at time=0. During the reaction course the sum of substrate and product peak height were set as 100% and the percentage of the remaining substrate peak (also expressed as relative concentration) was determined. Diagrammed relative substrate concentration versus time t1/2 can be calculated based on first order exponential decay reaction course. [formula]

Assay in series [2]: as above
The procedure:
as §1, §2, §3

A further series has as its target T1, rec. human DP IV (Homo sapiens, UniProt P27487).
T1 construct: His6 (N); made in house; host or cells: Pichia pastoris X-33 (vector pPICαC, secreted into the medium)
In words: MALDI-TOF approach: Ki of TFTSDY on DP IV-catalyzed peptide truncation. To be noted: K1, inhibitory effect on DP IV-catalyzed peptide truncation. Format: biochemical. The method, then:
(§4) 250 single laser-shot spectra were accumulated.
(§5) In order to investigate directly the influence of TFTSDY on the DP IV-catalyzed peptide hydrolysis the MALDI-TOF assay was used.
(§6) As described before (determination of t1/2) DP IV and TFTSDY were preincubated and the reaction was started by adding the enzyme/hexapeptide mixture to substrate/buffer mix. The control reaction mixture consisted of buffer, enzyme and substrate. From the curves of the first order exponential the initial rate (v1) for the control and the reversible inhibited reaction was calculated.
(§7) For the uninfluenced reaction the Michaelis-Menten-equation was used.
(§8) Vi was calculated from plotting the relative substrate concentration versus time.
(§9) Km is given, also the substrate concentration. [formula]
(§10) For the reversible inhibited reaction the following reaction was used to calculate Kl: [formula]

For the next series, the target named is T2, porcine DP IV (Sus scrofa, UniProt P22411).
T2 construct: purified DP IV from human, from porcine kidney, of recombinant human DP IV; from tissue; host or cells: porcine kidney
T2 sequence (P22411 whole entry): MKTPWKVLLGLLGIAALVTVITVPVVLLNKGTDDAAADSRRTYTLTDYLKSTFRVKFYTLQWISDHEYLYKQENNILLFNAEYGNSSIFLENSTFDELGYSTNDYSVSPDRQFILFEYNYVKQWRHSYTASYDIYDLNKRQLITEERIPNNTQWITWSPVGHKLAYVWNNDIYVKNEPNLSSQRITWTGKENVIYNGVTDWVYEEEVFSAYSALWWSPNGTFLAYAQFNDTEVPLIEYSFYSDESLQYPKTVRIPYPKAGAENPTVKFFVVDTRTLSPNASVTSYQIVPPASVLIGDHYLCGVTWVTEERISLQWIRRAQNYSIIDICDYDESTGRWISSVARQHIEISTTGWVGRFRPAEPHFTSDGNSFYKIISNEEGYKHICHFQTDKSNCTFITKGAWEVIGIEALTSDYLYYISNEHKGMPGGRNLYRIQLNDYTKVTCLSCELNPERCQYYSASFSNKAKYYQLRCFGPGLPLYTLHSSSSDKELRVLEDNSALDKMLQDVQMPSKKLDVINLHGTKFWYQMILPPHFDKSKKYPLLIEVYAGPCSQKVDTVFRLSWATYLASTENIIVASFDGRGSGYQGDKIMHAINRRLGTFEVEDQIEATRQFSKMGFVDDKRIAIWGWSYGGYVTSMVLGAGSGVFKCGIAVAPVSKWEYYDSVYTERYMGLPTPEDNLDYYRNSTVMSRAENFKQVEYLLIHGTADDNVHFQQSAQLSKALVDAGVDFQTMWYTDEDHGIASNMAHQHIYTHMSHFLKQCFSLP
Described as above. Format: biochemical. The settings on record: K1, inhibitory effect on DP IV-catalyzed peptide truncation. The procedure: as §4, §5, §6, §7, §8, §9, §10

Series [3] deals with DP IV. In words: Peptide truncation by DP IV after preincubation with TFTSDY (MALDI-TOF). In kind it is biochemical. The procedure: as §4, §5, §6
For series [4], the target named is T3, mu 15: recombinant human DP IV, mutation R560A (Homo sapiens, UniProt P27487, R560A).
T3 construct: His6 (N); made in house; host or cells: Pichia pastoris X-33 (vector pPICαC, secreted into the medium)
T3 sequence (P27487 37-766 R560A): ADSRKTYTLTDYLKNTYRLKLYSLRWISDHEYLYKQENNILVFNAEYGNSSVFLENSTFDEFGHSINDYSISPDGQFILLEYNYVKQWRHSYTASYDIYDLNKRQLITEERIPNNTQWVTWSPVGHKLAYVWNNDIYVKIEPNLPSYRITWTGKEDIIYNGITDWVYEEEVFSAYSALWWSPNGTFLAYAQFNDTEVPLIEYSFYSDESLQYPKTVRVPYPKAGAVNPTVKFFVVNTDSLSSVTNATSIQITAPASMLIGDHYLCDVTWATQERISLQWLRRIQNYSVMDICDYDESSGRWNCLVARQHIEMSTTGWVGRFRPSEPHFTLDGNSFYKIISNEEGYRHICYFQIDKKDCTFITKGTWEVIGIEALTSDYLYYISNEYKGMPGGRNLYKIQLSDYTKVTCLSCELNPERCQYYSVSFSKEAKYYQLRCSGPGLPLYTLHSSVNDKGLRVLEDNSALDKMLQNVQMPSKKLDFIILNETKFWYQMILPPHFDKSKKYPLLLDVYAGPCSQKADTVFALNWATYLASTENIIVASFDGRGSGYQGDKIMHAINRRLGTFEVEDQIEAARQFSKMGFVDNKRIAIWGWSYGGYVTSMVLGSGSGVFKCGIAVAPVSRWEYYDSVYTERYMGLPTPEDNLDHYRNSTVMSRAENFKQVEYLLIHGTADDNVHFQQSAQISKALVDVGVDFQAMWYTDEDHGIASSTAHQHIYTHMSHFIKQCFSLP
In words: Determination of Ki in competition to standard substrate GP-4NA. The settings on record: mu 15 DP IV, competition to GP-4NA. In kind it is biochemical. The method, then: (§11) In order to measure the inhibition constant Ki a photometric assay was used The peptides were measured as competitors of the standard substrate GP-4-Nitroanilide. Three different substrate concentrations (0.4 mM to 0.05 mM) were combined with 8 different competitor concentrations (0.5 mM to 2 μM). […] Experiments were carried out under standard conditions: 30° C. in pH 7.6 40 mM HEPES (Sigma-Aldrich) buffer. Nitroaniline production was monitored using a HTS 7000+ microplate reader (PerkinElmer, Überlingen, Germany).
(§12) For a reversible competitive inhibition is to assumed: [formula]

Series [5] addresses T4, mu 16: recombinant human DP IV, mutation W629A (Homo sapiens, UniProt P27487, W629A).
T4 construct: His6 (N); made in house; host or cells: Pichia pastoris X-33 (vector pPICαC, secreted into the medium)
The series is described as above. To be noted: mu 16 DP IV, competition to GP-4NA. In kind it is biochemical. The procedure: as §11, §12

Series [6] concerns the target T5, rh wt: recombinant human DP IV, wild type (Homo sapiens, UniProt P27487).
T5 construct: His6 (N); made in house; host or cells: Pichia pastoris X-33 (vector pPICαC, secreted into the medium)
Described as above. Format: biochemical. The settings on record: competition to GP-4NA. The method, then: as §11, §12

The term half-life denotes the time needed for the level to fall by half in the phase considered. A low value points to fast loss. As a reminder, the Ki is a measure of affinity in units of concentration, obtained from inhibition or displacement.

Where two headings read alike, the source gives them in different places. Residues, ends and D or L forms follow the SMILES beside them.

T1 sequence (P27487 37-766): as the sequence (P27487 37-766 R560A) above, with A524R counted along it
T4 sequence (P27487 37-766 W629A): as the sequence (P27487 37-766 R560A) above, with A524R, W593A counted along it
T5 sequence (P27487 37-766): as the sequence (P27487 37-766 R560A) above, with A524R counted along it

For `C[C@@H](O)[C@H](NC(=O)CNC(=O)[C@H](CCC(=O)O)NC(=O)CNC(=O)[C@@H](N)Cc1ccc(O)cc1)C(=O)N[C@@H](Cc1ccccc1)C(=O)O` [G^2GIP1-6] (H-YGEGTF-OH), the half-life entry with DP IV [1] is recorded as “no degradation”.

`CC[C@H](C)[C@H](NC(=O)[C@H](CO)NC(=O)[C@H](Cc1ccc(O)cc1)NC(=O)[C@H](CC(=O)O)NC(=O)[C@H](CO)NC(=O)[C@@H](NC(=O)[C@H](Cc1ccccc1)NC(=O)[C@@H](NC(=O)CNC(=O)[C@H](CCC(=O)O)NC(=O)CNC(=O)[C@@H](N)Cc1ccc(O)cc1)[C@@H](C)O)[C@@H](C)CC)C(=O)N[C@@H](C)C(=O)N[C@@H](CCSC)C(=O)N[C@@H](CC(=O)O)C(=O)N[C@@H](CCCCN)C(=O)N[C@H](C(=O)N[C@@H](Cc1c[nH]cn1)C(=O)N[C@@H](CCC(N)=O)C(=O)N[C@@H](CCC(N)=O)C(=O)N[C@@H](CC(=O)O)C(=O)N[C@@H](Cc1ccccc1)C(=O)N[C@H](C(=O)N[C@@H](CC(N)=O)C(=O)N[C@@H](Cc1c[nH]c2ccccc12)C(=O)N[C@@H](CC(C)C)C(=O)N[C@@H](CC(C)C)C(=O)N[C@@H](C)C(=O)N[C@@H](CCC(N)=O)C(=O)N[C@@H](CCCCN)C(=O)O)C(C)C)[C@@H](C)CC` [G^2GIP1-30] returned a half-life in series [2] of 2.5 h.

`CC[C@H](C)[C@H](NC(=O)[C@H](CO)NC(=O)[C@H](Cc1ccc(O)cc1)NC(=O)[C@H](CC(=O)O)NC(=O)[C@H](CO)NC(=O)[C@@H](NC(=O)[C@H](Cc1ccccc1)NC(=O)[C@@H](NC(=O)CNC(=O)[C@H](CCC(=O)O)NC(=O)[C@H](CO)NC(=O)[C@@H](N)Cc1ccc(O)cc1)[C@@H](C)O)[C@@H](C)CC)C(=O)N[C@@H](C)C(=O)N[C@@H](CCSC)C(=O)N[C@@H](CC(=O)O)C(=O)N[C@@H](CCCCN)C(=O)N[C@H](C(=O)N[C@@H](Cc1c[nH]cn1)C(=O)N[C@@H](CCC(N)=O)C(=O)N[C@@H](CCC(N)=O)C(=O)N[C@@H](CC(=O)O)C(=O)N[C@@H](Cc1ccccc1)C(=O)N[C@H](C(=O)N[C@@H](CC(N)=O)C(=O)N[C@@H](Cc1c[nH]c2ccccc12)C(=O)N[C@@H](CC(C)C)C(=O)N[C@@H](CC(C)C)C(=O)N[C@@H](C)C(=O)N[C@@H](CCC(N)=O)C(=O)N[C@@H](CCCCN)C(=O)O)C(C)C)[C@@H](C)CC` [S^2GIP1-30] came in with a half-life in series [2] of 2.29 h.

On to `C[C@@H](O)[C@H](N)C(=O)N[C@@H](Cc1ccccc1)C(=O)N[C@H](C(=O)N[C@@H](CO)C(=O)N[C@@H](CC(=O)O)C(=O)N[C@@H](Cc1ccc(O)cc1)C(=O)O)[C@@H](C)O` [TFTSDY] (H-TFTSDY-OH; N-terminus and C-terminus assumed), for which the inhibitory constant (Ki) amounted to 14 µM on rec. human DP IV (substrate GIP); 26.7 µM on rec. human DP IV (substrate PACAP-27); 2.8 µM at rec. human DP IV (substrate PACAP-38); 3.7 µM on rec. human DP IV (substrate glucagon); 65.9 µM at porcine DP IV (substrate GIP); 13.7 µM at porcine DP IV (substrate GLP-1). The Ki on porcine DP IV (substrate NPY) was 17.2 µM; on porcine DP IV (substrate RANTES1-15), at least 12300 µM; on porcine DP IV (substrate glucagon) it was 6.8 µM. In the series with DP IV [3] (DP IV preincubated with TFTSDY), the “influence on affinity of oligopeptides such as GIP, VIP, glucagon” value is recorded as “considerably reduced”. Moreover, in the series on DP IV [3] (DP IV preincubated with TFTSDY), the “influence on binding and hydrolysis of small dipeptide substrates” value is “only slightly influenced”. Also, the “effect on truncation of substrate by DP IV” value with DP IV [3] (substrate Rantes1-15, 160 μM TFTSDY) was “No differences”.

For the compound `CC(C)[C@H](NC(=O)[C@@H](N)Cc1ccc(O)cc1)C(=O)N[C@@H](CCC(=O)O)C(=O)NCC(=O)N[C@H](C(=O)N[C@@H](Cc1ccccc1)C(=O)O)[C@@H](C)O` [V^2GIP1-6] (H-YVEGTF-OH), in the series on DP IV [1], the half-life entry is on record as “no degradation”.

The compound `CC[C@H](C)[C@H](NC(=O)[C@H](CO)NC(=O)[C@H](Cc1ccc(O)cc1)NC(=O)[C@H](CC(=O)O)NC(=O)[C@H](CO)NC(=O)[C@@H](NC(=O)[C@H](Cc1ccccc1)NC(=O)[C@@H](NC(=O)CNC(=O)[C@H](CCC(=O)O)NC(=O)[C@@H](NC(=O)[C@@H](N)Cc1ccc(O)cc1)C(C)C)[C@@H](C)O)[C@@H](C)CC)C(=O)N[C@@H](C)C(=O)N[C@@H](CCSC)C(=O)N[C@@H](CC(=O)O)C(=O)N[C@@H](CCCCN)C(=O)N[C@H](C(=O)N[C@@H](Cc1c[nH]cn1)C(=O)N[C@@H](CCC(N)=O)C(=O)N[C@@H](CCC(N)=O)C(=O)N[C@@H](CC(=O)O)C(=O)N[C@@H](Cc1ccccc1)C(=O)N[C@H](C(=O)N[C@@H](CC(N)=O)C(=O)N[C@@H](Cc1c[nH]c2ccccc12)C(=O)N[C@@H](CC(C)C)C(=O)N[C@@H](CC(C)C)C(=O)N[C@@H](C)C(=O)N[C@@H](CCC(N)=O)C(=O)N[C@@H](CCCCN)C(=O)O)C(C)C)[C@@H](C)CC` [V^2GIP1-30] gave a half-life in series [2] of 4.97 h.

Take `C[C@H](NC(=O)[C@@H](N)Cc1ccc(O)cc1)C(=O)N[C@@H](CCC(=O)O)C(=O)N[C@@H](CO)C(=O)N[C@H](C(=O)N[C@@H](Cc1ccccc1)C(N)=O)[C@@H](C)O` [YAESTF amide] (H-YAESTF-NH2; N-terminus assumed): the inhibition constant (Ki) in series [4] (read-out: Ki) was found to be 1.14 µM; in series [5] (read-out: Ki), 1.06 µM.

On to “Glucagon (1-14): glucagon fragment 1-14 (HSQGTFTSDYSKYL; Glucagon; UniProt P01275 53-66, looked up, fragment) [reference compound]”, for which the Ki entry in series [4], in series [6] and in series [5] was “no inhibition” each time.
